Test results from patent publication US11440913B2, “Aminoimidazopyridazines as kinase inhibitors” (BRISTOL-MYERS SQUIBB COMPANY, priority 2017, dated 2022).
Counter-ions that a name gives are not always drawn. Like-named read-outs stand apart in the source and are kept apart here.

Key:
[1] = target: His-GST-TVMV-hRIPK1(1-324) (Homo sapiens (Human), UniProt Q13546); assay: RIPK1 HTRF Binding Assay; settings: HTRF binding, 1 h at rt, read-out: RIPK1 (IC50)
Method in brief: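 HTRF probe-displacement binding: 1 nM His-GST-TVMV-hRIPK1(1-324) (baculovirus construct), 90.6 nM probe, 0.2 nM anti-GST-Tb in 20 mM HEPES, 10 mM MgCl2, 0.015% Brij-35, 4 mM DTT, 0.05 mg/mL BSA. Incubated 1 h at rt; FRET 520/495 nm ratio, inhibition relative to DMSO-only wells.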

[2] = tested on: MLKL phosphorylation in HT29-L23 human colorectal adenocarcinoma cells; assay: MLKL Phosphorylation High-Content Assay; type: cell-based; settings: 6 h, necroptosis induced with TNFα, SMAC mimetic and Z-VAD, read-out: pMLKL (IC50)
Method in brief: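 HT29-L23 cells pretreated 30 min at 37 °C with compound (6.25 to 0.106 μM final), then necroptosis induced with TNFα 35 ng/mL, SMAC mimetic 700 nM and Z-VAD 140 nM for 6 h. Fixed cells immunostained for MLKL pS358 and imaged; IC50 and Ymax from 4-parameter logistic fit.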

His-GST-TVMV-hRIPK1(1-324), sequence (Q13546 1-324): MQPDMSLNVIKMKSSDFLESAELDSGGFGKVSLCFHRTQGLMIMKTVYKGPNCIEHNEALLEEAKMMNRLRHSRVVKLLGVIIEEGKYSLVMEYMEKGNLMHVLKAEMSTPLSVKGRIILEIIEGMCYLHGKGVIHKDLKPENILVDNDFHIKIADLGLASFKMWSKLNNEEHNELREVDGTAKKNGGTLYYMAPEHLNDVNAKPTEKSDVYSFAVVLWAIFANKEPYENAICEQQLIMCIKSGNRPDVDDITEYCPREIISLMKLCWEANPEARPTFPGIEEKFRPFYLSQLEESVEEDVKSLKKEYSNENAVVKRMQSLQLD

SMILES	IC50 [1] [nM]	IC50 ([2]; Homo sapiens) [nM]	IC50 [2] [nM]	IC50 ([1]; TFA) [nM]	IC50 ([2]; TFA) [nM]
Cc1ncc(-c2ccc3nc(NC(=O)[C@H](C)O)cn3n2)cc1C(=O)N[C@H](C)c1cc(OC(F)(F)F)ccc1F [Example 339, N-((R)-1-(2-fluoro-5-(trifluoromethoxy)-phenyl)ethyl)-5-(2-((S)-2-hydroxypropanamido)-imidazo[1,2-b]pyridazin-6-yl)-2-methylnicotinamide]	48	170	–	–	–
COc1nc(C)c(-c2ccc3nc(NC(C)=O)cn3n2)cc1C(=O)NCc1ccc(F)c(F)c1OCC1CC1 [Example 286, N-{[2-(cyclopropylmethoxy)-3,4-difluorophenyl]methyl}-5-{2-acelamidoimidazo[1,2-b]pyridazin-6-yl}-2-methoxy-6-methylpyridine-3-carboxamide]	9	–	19	–	–
COc1nc(C)c(-c2ccc3nc(NC(C)=O)cn3n2)cc1C(=O)NCc1cc(F)cc(F)c1OCC1CC1 [Example 300, N-{[2-(cyclopropylmethoxy)-3,5-difluorophenyl]methyl}-5-{2-acetamidoimidazo[1,2-b]pyridazin-6-yl}-2-methoxy-6-methylpyridine-3-carboxamide]	4	76	–	–	–
CC(=O)Nc1cn2nc(-c3cc(C(=O)NCc4cc(C(F)(F)F)cc(Cl)c4F)c(C)cc3C)ccc2n1 [Example 384, N-{[3-chloro-2-fluoro-5-(trifluoromethyl)phenyl]methyl}-5-{2-acetamidoimidazo [1,2-b]pyridazin-6-yl}-2,4-dimethylbenzamide]	48	99	–	–	–
COc1ncc(-c2ccc3nc(NC(C)=O)cn3n2)cc1C(=O)NCc1cccc(OC(F)(F)F)c1 [Example 126, 5-{2-acetamidoimidazo[1,2-b]pyridazin-6-yl}-2-methoxy-N-{[3-(trifluoro-methoxy)phenyl]methyl}pyridine-3-carboxamide]	73	78	–	–	–
Cc1ncc(-c2ccc3nc(NC(=O)CN4CC(F)(F)C4)cn3n2)cc1C(=O)N[C@H](C)c1cc(OC(F)(F)F)ccc1F [Example 335, 5-{2-[2-(3,3-difluoroazetidin-1-yl)acetamido]-imidazo[1,2-b]pyridazin-6-yl}-N-[(1R)-1-[2-fluoro-5-(trifluoromethoxy)-phenyl]ethyl]-2-methylpyridine-3-carboxamide]	28	9	–	–	–
Cc1ncc(-c2ccc3nc(NC(=O)CN(C)C)cn3n2)cc1C(=O)NCC[C@H](O)c1ccc(Cl)cc1 [Example 347, N-[(3S)-3-(4-chlorophenyl)-3-hydroxypropyl]-5-{2-[2-(dimethylamino)-acetamido]-imidazo[1,2-b]pyridazin-6-yl}-2-methylpyridine-3-carboxamide]	44	89	–	–	–
CC(=O)Nc1cn2nc(-c3cc(C(=O)NCc4cccc(OCC(F)(F)F)c4)c(C)nc3C)ccc2n1 [Example 73, 5-{2-acetamidoimidazo[1,2-b]pyridazin-6-yl}-2,6-dimethyl-N-{[3-(2,2,2-trifluoroethoxy)phenyl]methyl}pyridine-3-carboxamide]	57	82	–	–	–
CC(=O)Nc1cn2nc(-c3cnc(C)c(C(=O)NCc4cc(F)ccc4OCC(F)(F)F)c3)ccc2n1 [Example 195, 5-{2-acetamidoimidazo[1,2-b]pyridazin-6-yl}-N-{[5-fluoro-2-(2,2,2-trifluoroethoxy)phenyl]methyl}-2-methylpyridine-3-carboxamide]	43	188	–	–	–
COc1ncc(-c2ccc3nc(NC(C)=O)cn3n2)cc1C(=O)NCc1ccc(F)cc1OC1CCOCC1 [Example 152, 5-{2-acetamidoimidazo[1,2-b]pyridazin-6-yl}-N-{[4-fluoro-2-(oxan-4-yloxy)phenyl]methyl}-2-methoxypyridine-3-carboxamide]	49	69	–	–	–
COc1nc(C)c(-c2ccc3nc(NC(C)=O)cn3n2)cc1C(=O)NC(C)c1cc(OC(F)(F)F)ccc1F (stereo not drawn) [Example 278, 5-{2-acetamidoimidazo[1,2-b]pyridazin-6-yl}-N-{1-[2-fluoro-5-(trifluoromethoxy)phenyl]ethyl}-2-methoxy-6-methylpyridine-3-carboxamide, TFA]	–	–	–	6	64
CC(=O)Nc1cn2nc(-c3cnc(C)c(C(=O)N4CCCC(C(O)c5ccc(F)cc5)C4)c3)ccc2n1 (single isomer, unassigned) [Example 355, N-[6-(5-{3-[(4-fluorophenyl)(hydroxy)methyl]piperidine-1-carbonyl}-6-methylpyridin-3-yl)imidazo[1,2-b]pyridazin-2-yl] acetamide]	223	–	553	–	–
COc1nc(C)c(-c2ccc3nc(NC(C)=O)cn3n2)cc1C(=O)NCc1cc(F)ccc1OCC1CCCC1 [Example 315, N-{[2-(cyclopentylmethoxy)-5-fluorophenyl]methyl}-5-{2-acetamidoimidazo[1,2-b]pyridazin-6-yl}-2-methoxy-6-methylpyridine-3-carboxamide]	5	9	–	–	–
COc1ccc(F)c(CNC(=O)c2cc(-c3ccc4nc(NC(C)=O)cn4n3)cnc2OC)c1 [Example 100, 5-{2-acetamidoimidazo[1,2-b]pyridazin-6-yl}-N-[(2-fluoro-5-methoxyphenyl)methyl]-2-methoxypyridine-3-carboxamide]	56	203	–	–	–
COc1c(F)cc(F)cc1CNC(=O)c1c(C)ccc(-c2ccc3nc(NC(C)=O)cn3n2)c1F [Example 414, N-[(3,5-difluoro-2-methoxyphenyl)methyl]-3-{2-acetamidoimidazo [1,2-b]pyridazin-6-yl}-2-fluoro-6-methylbenzamide]	91	384	–	–	–
[2H]C([2H])([2H])[C@@H](NC(=O)c1cc(-c2ccc3nc(NC(C)=O)cn3n2)c(C)nc1C)c1cc(C(F)(F)F)ccc1F [Example 67, 5-{2-acetamidoimidazo[1,2-b]pyridazin-6-yl}-N-[(1R)-1-[2-fluoro-5-(trifluoromethyl)phenyl](2,2,2-deutero)ethyl]-2,6-dimethylpyridine-3-carboxamide]	14	14	–	–	–
CC(=O)Nc1cn2nc(-c3cc(F)c(F)c(C(=O)NCc4cc(OC(F)(F)F)ccc4F)c3)ccc2n1 [Example 366, 5-{2-acetamidoimidazo [1,2-b]pyridazin-6-yl}-2,3-difluoro-N-{[2-fluoro-5-(trifluoromethoxy)phenyl]methyl} benzamide]	13	123	–	–	–
[2H]C([2H])([2H])Oc1nc(C)c(-c2ccc3nc(NC(C)=O)cn3n2)cc1C(=O)NCc1ccc(F)c(F)c1OCC1CC1 [Example 176, N-{[2-(cyclopropylmethoxy)-3,4-difluorophenyl]methyl}-5-{2-acetamidoimidazo[1,2-b]pyridazin-6-yl}-2-(deutero)methoxy-6-methylpyridine-3-carboxamide]	10	12	–	–	–
CC(=O)Nc1cn2nc(-c3ccc(C(F)(F)F)c(C(=O)NCc4cc(C(F)(F)F)ccc4F)c3)ccc2n1 [Example 385, 5-{2-acetamidoimidazo [1,2-b]pyridazin-6-yl}-N-{[2-fluoro-5-(trifluoromethyl)phenyl]methyl}-2-(trifluoromethyl) benzamide]	57	189	–	–	–
COc1ncc(-c2ccc3nc(NC(C)=O)c(C)n3n2)cc1C(=O)NCc1cccc(OC(F)(F)F)c1 [Example 257, 5-{2-acetamido-3-methylimidazo[1,2-b]pyridazin-6-yl}-2-methoxy-N-{[3-(trifluoromethoxy)phenyl]methyl}pyridine-3-carboxamide, TFA]	61	69	–	–	–
CC(=O)Nc1cn2nc(-c3cc(C(=O)NCc4ccccc4OC(F)(F)F)cnc3C)ccc2n1 [Example 233, 5-{2-acetamidoimidazo[1,2-b]pyridazin-6-yl}-6-methyl-N-{[2-(trifluoromethoxy)phenyl]methyl}pyridine-3-carboxamide]	38	276	–	–	–
COc1nc(C)c(-c2ccc3nc(NC(C)=O)cn3n2)cc1C(=O)NCc1ccc(F)cc1OCC1CC1 [Example 317, N-{[2-(cyclopropylmethoxy)-4-fluorophenyl]methyl}-5-{2-acetamidoimidazo[1,2-b]pyridazin-6-yl}-2-methoxy-6-methylpyridine-3-carboxamide]	3	19	–	–	–
CC(=O)Nc1cn2nc(-c3cc(C(=O)NCc4ccccc4OCC4CC4)c(C)nc3C)ccc2n1 [Example 83, N-{[2-(cyclopropylmethoxy)phenyl]methyl}-5-{2-acetamidoimidazo[1,2-b]pyridazin-6-yl}-2,6-dimethylpyridine-3-carboxamide]	5	–	7	–	–
[2H]C([2H])([2H])Oc1nc(C)c(-c2ccc3nc(NC(C)=O)cn3n2)cc1C(=O)NCc1c(F)cccc1OCC(F)(F)F [Example 173, 5-{2-acetemidoimidazo[1,2-b]pyridazin-6-yl}-N-{[2-fluoro-6-(2,2,2-trifluoroethoxy)phenyl]methyl}-2-(deutero)methoxy-6-methylpyridine-3-carboxamide]	3	2	–	–	–
